Measured values: US12122811B2, “BDNF mimetic peptide amphiphiles” (Northwestern University, priority 2018, dated 2024)
Positions of bridges follow the written chain, without caps; N, C: chain ends. Non-standard residues stand in square brackets, D forms with d. Residues, ends and D or L forms follow the SMILES beside them. Chains are numbered I, II in the order given. *: point of attachment. PEG6 = NCCOCCOCCOCCOCCOCCOCCC(=O)O; Palmitoyl = CCCCCCCCCCCCCCCC(=O)*

Tests used:
[1] = test system: cortical neurons; assay: Infiltration and maturation of cortical neurons on 3D PA gel scaffolds; assay type: cell-based, mouse; conditions: neurons on gels, one week
Description: Gels were made using annealed PAs prepared with methods described herein 1. BDNF native protein or BDNF peptide were incorporated by mixing at 10 nM or 0.5 uM respectively, with E2 Filler PA gel at 1 wt % while it was in its liquid state. Silicon isolators with adhesive (Invitrogen) were placed on PDL coated glass coverslips. 70 μL of PA liquid was pipetted into the circular silicon well and a Transwell insert was placed flush with the top of the well of the silicon insert. This step ensured a flat, even thickness for all gels. Gelling solution comprised of 125 mM NaCl, 3 mM KCl, and 25 mM CaCl2 was pipetted into the Transwell insert and allowed to slowly soak down into the material from the top. The insert prevented the gel from swelling more than the thickness of the silicon isolator. All gels were incubated at 37° C. for 5 min before removing the Transwell insert.
Infiltration Study. Gels were prepared as described in 2.1.2. Gels were then rinsed with media one time before cells were seeded on top at a density of approximately 42,000 cells/well. Cells were cultured for one week in vitro. Half of the gels were analyzed by patch clamp analysis (see section 3.4.9. Other gels were fixed with 4% PFA to perform infiltration studies. Cell were stained for MAP2, TUJ-1 and DAPI using immunocytochemistry methods described previously. Confocal microscopy was used to make z-stack reconstructions of each gel. The MultiMeasure function in the ROI manager of ImageJ was used to measure the depth of pixels for each channel which was then plotted as intensity vs depth in the gel. The average intensity of MAP2 was measured by averaging the mean intensities obtained from maximum intensity projections of z-stacks images of gels.

[2] = test system: neuronal cells; assay: Neuronal maturation markers (MAP2, PSD95) by immunocytochemistry and western blot; assay type: cell-based, mouse; conditions: neuronal cells (14 DIV) cultured during 16 DIV with treatment
Description: Western Blot. Protein was extracted from primary neuronal cultures with Halt Protease and Phosphatase Inhibitor Cocktail (Thermo Scientific) and a BCA assay (Thermo Scientific) was performed to determine protein content of each sample. Cell protein was loaded into and separated using a 4-20% SDS-PAGE gel (Bio-Rad). It was then electrotransferred from the gel to a nitrocellulose membrane (Bio-Rad). The membranes were blocked with 5% milk solution (Bio-Rad) for 30 minutes followed by an overnight incubation with primary antibodies at 4° C. […] Protein signals were detected using Radiance Bioluminescent ECL substrate (Azure Biosystems). Densitometry analysis, standardized to total receptor content or Actin as a control for protein loading, was performed using ImageJ software.^3 For quantification, triplicate samples were analyzed and at least two different experiments were conducted. […]

[3] = test system: mouse model of spinal cord injury; assay: Mouse model of spinal cord injury, Basso Mouse Scale hind limb scoring; assay type: in vivo; conditions: for hindlimb function: over 12 weeks, vs E2 PA or saline
Description: The spinal cord injury procedures used follow a standardized protocol to ensure a reproducible injury. Mice were anesthetized and their back is opened to reveal the vertebral column. The vertebral bone at T11 was surgically removed to reveal the spinal cord tissue. The mice were then transferred the impactor machine which is used to inflict a compression injury on the exposed spinal cord. The spinal cord was held in place using stereotactic clamps. The instrument inflicts a force of 70-80 kDynes and dwells in the place of the impact for 60 seconds to simulate a crush injury accident. This injury is quite severe. After each impact was performed, the instrument supplies a graph corresponding to the real force and trajectory of the impactor. This graph is used to compare and ensure that all animals receive an injury of the same nature. After the injury is inflicted, the animals were closed and allowed to rest for 24 hours.
The next day, the animals were re-opened and prepared for the “treatment” surgery. Before beginning the procedure, all animals underwent a behavioral assessment and mice with hind limb movement were discarded from the study. When the animal is re-opened, there was typically a dark, bruised area apparent where the crush injury took place the previous day. This is where the treatment was injected. A Hamilton syringe attached to a glass-pulled needle with a diameter of ˜300 μm was used to puncture the bruised dermis of the tissue and the treatment was injected into the underlying tissue cavity. Treatment types include; saline, and the C16V2A2E2 (E2) non-bioactive PA gel as negative controls, as well as the BDNF PA co-assembled at 20 mol % with the E2 non-bioactive PA gel.
After injection, the animals were closed and returned to cages to recover. Over the next 12 weeks, blinded hind limb behavioral scoring was performed to assess any functional changes (FIG. 21). A standardized “Basso Mouse Scale” was used (Basso et al. J Neurotrauma. 2006 May; 23(5):635-59.; herein incorporated by reference in its entirety). Two blinded researchers were either side of a runway where the mouse was guided to move in a straight line. As the mouse walks, each researcher grades the limb movement. Any discrepancies in evaluation were re-evaluated by a third researcher. The score for the two limbs was averaged and marked as the score for that animal.

Molecule | distance that neurites infiltrated from the top of the scaffold [1] [μm] | infiltration distance relative to all the other conditions [1] | normalized average of MAP2 intensity [1] | MAP2 expression (neuronal maturation marker) [2] | final average limb behavioral score (Basso Mouse Scale) ([3]; 12 weeks after injury, BDNF PA co-assembled at 20 mol % with E2 PA gel, injected 24 h after injury) | rate of hindlimb improvement ([3]; first three weeks following injury) | hindlimb function [3] | hindlimb function ([3]; listed as BDNF mimetic PA)
CCCCCCCCCCCCCCCC(=O)N[C@H](C(=O)N[C@H](C(=O)N[C@@H](C)C(=O)N[C@@H](C)C(=O)N[C@@H](CCC(=O)O)C(=O)N[C@@H](CCC(=O)O)C(=O)N[C@@H](CCC(=O)O)C(=O)N[C@@H](CCC(=O)O)C(=O)NCCOCCOCCOCCOCCOCCOCCC(=O)NCCCC[C@@H]1NC(=O)[C@H]2CCCN2C(=O)[C@H](CCCNC(=N)N)NC(=O)[C@H](CCCCN)NC(=O)[C@H](CCCCN)NC1=O)C(C)C)C(C)C [BDNF PA, RKK(aK)(dP)-(PEG6 Spacer)-EEEEAAVV-C16 (SEQ ID NO: 5)] (I: Palmitoyl-VVAAEEEE[PEG6] / II: cyclo(KKKR[dP]); amide I:C-II:1) | 179.7±6.0 | nearly four-and-a-half times higher | 0.64±0.15 | significant increase | 3.7 | increased rate of hindlimb improvement | increased functional hind limb recovery | significant improvement in hindlimb function
BDNF protein: Human/Murine/Rat BDNF protein (Peprotech) (protein, UniProt P23560 19-247, looked up) Neurotrophic factor BDNF …: APMKEANIRGQGGLAYPGVRTHGTLESVNGPKAGSRGLTSLADTFEHVIEELLDEDQKVRPNEENNKDADLYTSRVMLSSQVPLEPPLLFLLEEYKNYLDAANMSMRVRRHSDPARRGELSVCDSISEWVTAADKKTAVDMSGGTVTVLEKVPVSKGQLKQYFYETKCNPMGYTKEGCRGIDKRHWNSQCRTTQSYVRALTMDSKKRIGWRFIRIDTSCVCTLTIKRGR |  |  |  | significant increase |  |  |  | 
